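The compound was tested at five concentrations on cells cultured in 96-well plates, with a 48-hour exposure period. The concentration for full growth arrest is given as TGI.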
Legend:
Assay in all cases: NCI tumour cell line growth inhibition, 48 h
[1] = tested on: HCC-2998 colon
[2] = tested on: MALME-3M melanoma
[3] = tested on: SN12C renal
[4] = tested on: KM12 colon
[5] = tested on: HS 578T breast
[6] = tested on: SK-MEL-28 melanoma
[7] = tested on: MOLT-4 leukemia
[8] = tested on: OVCAR-8 ovarian
[9] = tested on: U251 CNS
[10] = tested on: CAKI-1 renal
[11] = tested on: HCT-15 colon
[12] = tested on: A498 renal
[13] = tested on: PC-3 prostate
[14] = tested on: NCI-H23 lung
[15] = tested on: UACC-257 melanoma
[16] = tested on: OVCAR-4 ovarian
[17] = tested on: HOP-62 NSCLC
[18] = tested on: HL-60(TB) leukemia
[19] = tested on: M14 melanoma
[20] = tested on: SF-539 CNS
[21] = tested on: RXF 393 renal
[22] = tested on: HT29 colon
[23] = tested on: SR leukemia
[24] = tested on: ACHN renal
[25] = tested on: SK-MEL-2 melanoma
[26] = tested on: COLO 205 colon
[27] = tested on: 786-0 renal
[28] = tested on: SK-MEL-5 melanoma
[29] = tested on: SNB-19 CNS
[30] = tested on: SF-268 CNS
[31] = tested on: SNB-75 CNS
[32] = tested on: MCF7 breast
[33] = tested on: HCT-116 colon
[34] = tested on: MDA-N
[35] = tested on: K-562 leukemia
[36] = tested on: HOP-92 NSCLC
[37] = tested on: NCI/ADR-RES ovarian
[38] = tested on: CCRF-CEM leukemia
[39] = tested on: MDA-MB-231 breast
[40] = tested on: SF-295 CNS
[41] = tested on: UO-31 renal
[42] = tested on: LOX IMVI melanoma
[43] = tested on: NCI-H522 lung
[44] = tested on: NCI-H226 lung
[45] = tested on: SW-620 colon
[46] = tested on: OVCAR-3 ovarian
[47] = tested on: SK-OV-3 ovarian
[48] = tested on: EKVX NSCLC
[49] = tested on: IGROV1 ovarian
[50] = tested on: TK-10 renal
[51] = tested on: RPMI-8226 leukemia
[52] = tested on: OVCAR-5 ovarian
[53] = tested on: MDA-MB-435
[54] = tested on: T-47D breast
[55] = tested on: NCI-H460 lung
[56] = tested on: DU-145 prostate
[57] = tested on: A549 NSCLC

Measured: TGI

O=c1ccn(C2OC(COC3CCCCO3)C(OC3CCCCO3)C2OC2CCCCO2)c(=O)n1-c1ccccc1 (configuration not stated)
> 100 µM: all assays above
